From BindingDB's records for doi:10.1016/j.bmc.2009.08.047 (University of Padova, 2009)

Biological target: Casein kinase II subunit alpha (Rattus norvegicus, UniProt P19139)
Experiment: CK2 Phosphorylation Assay
Settings: pH 7.5; 37 °C
Description: Inhibitory effect of test compound was assessed in reaction buffer containing purified CK2, synthetic peptide substrate, and [gamma-33P]ATP. Assays were stopped by addition of 0.5 M orthophosphoric acid before spotting aliquots onto phosphocellulose filters. Filters were washed in 75 mM phosphoric acid (5-10 mL/each) four times then once in methanol and dried before counting. Inhibition constants were determined from Lineweaver-Burk double-reciprocal plots of data obtained in experiments run at fixed concentration of peptide substrate and at increasing concentrations of ATP either in the absence or in the presence of variable concentrations of inhibitor. Alternatively inhibition constants were also deduced from the IC50/Ki Cheng-Prusoff relationship.

Casein kinase II subunit alpha, sequence (P19139 whole entry): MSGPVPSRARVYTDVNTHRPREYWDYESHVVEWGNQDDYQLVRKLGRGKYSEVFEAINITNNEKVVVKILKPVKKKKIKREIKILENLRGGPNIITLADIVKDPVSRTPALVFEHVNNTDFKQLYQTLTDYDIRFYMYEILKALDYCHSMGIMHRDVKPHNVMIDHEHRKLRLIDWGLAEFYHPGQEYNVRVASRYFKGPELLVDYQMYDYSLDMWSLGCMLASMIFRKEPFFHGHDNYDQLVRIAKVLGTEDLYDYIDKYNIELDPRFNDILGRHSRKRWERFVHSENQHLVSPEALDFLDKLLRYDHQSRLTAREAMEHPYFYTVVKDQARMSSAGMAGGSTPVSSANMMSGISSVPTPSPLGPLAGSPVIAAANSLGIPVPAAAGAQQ

`Brc1c(I)c(I)c2[nH]cnc2c1I` [iodinated benzimidazole, 3a] gave a Ki of 100 nM.
